Like-named read-outs stand apart in the source and are kept apart here.
What was measured:
BCL9/β-catenin = target: T1, BCL9/β-catenin (Homo sapiens, UniProt P35222); experiment: FP (BCL-9 avidity) fluorescence polarization competition assay with beta-catenin and FAP-Bcl9 tracer; format: binding
T1 sequence (P35222 1-781): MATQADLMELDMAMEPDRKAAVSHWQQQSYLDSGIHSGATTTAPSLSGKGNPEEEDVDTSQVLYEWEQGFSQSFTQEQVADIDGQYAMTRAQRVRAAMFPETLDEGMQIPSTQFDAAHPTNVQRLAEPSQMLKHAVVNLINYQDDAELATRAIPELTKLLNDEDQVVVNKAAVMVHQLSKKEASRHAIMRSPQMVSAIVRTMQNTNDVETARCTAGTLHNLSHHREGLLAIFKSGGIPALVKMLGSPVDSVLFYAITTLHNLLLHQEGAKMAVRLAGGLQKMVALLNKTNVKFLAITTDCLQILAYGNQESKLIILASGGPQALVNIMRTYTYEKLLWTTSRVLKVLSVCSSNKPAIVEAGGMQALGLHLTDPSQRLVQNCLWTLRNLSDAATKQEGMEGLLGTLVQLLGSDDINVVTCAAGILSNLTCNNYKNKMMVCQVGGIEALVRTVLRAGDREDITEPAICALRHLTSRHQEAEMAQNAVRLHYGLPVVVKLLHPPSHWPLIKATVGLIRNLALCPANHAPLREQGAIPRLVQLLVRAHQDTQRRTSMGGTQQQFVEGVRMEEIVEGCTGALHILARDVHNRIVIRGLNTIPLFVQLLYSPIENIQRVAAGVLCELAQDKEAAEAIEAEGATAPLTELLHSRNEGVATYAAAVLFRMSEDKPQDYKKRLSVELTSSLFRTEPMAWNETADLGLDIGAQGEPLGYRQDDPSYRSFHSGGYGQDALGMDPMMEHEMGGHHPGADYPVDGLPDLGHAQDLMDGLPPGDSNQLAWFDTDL
Procedure: Incubating for 2 hours on a horizontal shaker. Then adding 2 nM FAP-Bcl9 tracer to each well, and after incubation for 2H on a horizontal shaker, measuring the […].

Human AXIN2 = experiment: qPCR of AXIN2 expression in HCT116 cells; format: cell-based; conditions: HCT-116, Table 2, HCT116 cells, AXIN2 vs β-actin, 24 hours
Procedure: Cells were digesting, counting, and plating cells in 24-well plates (flat bottom, clear), with 3×10^5 cells/500 ul DMEM (10% FBS) per well. • 2. Observing the state of cells on the next day, and start dosing after cell attachment is intact
Diluting 514 with DMEM (2% FBS) by gradient dilution with concentrations of 20 μM, 10 μM, 5 μM, 2.5 μM, 1.25 μM, 0.625 μM, 0.3125 μM, 0.15625 μM, 0 μM (equal volume DMSO)
Adding 500 μl of the above different concentrations of 514 to each well, and setting a single well for each concentration gradient except three repeat wells for the 0 μM concentration (double wells for qPCR). • 3. Incubating at 37° C. for 24 hours • 4. Discarding the supernatant, washing once with PBS, and adding trizol at 500/well • 5. RNA extraction (step omitted) • 6. Reverse transcription (step omitted, according to the kit) • 7. qPCR (step omitted, following the kit steps)
• 8. calculation of inhibition rate

HCT116 cells = experiment: CCK8 cell viability assay in HCT116 cells; format: cell-based; conditions: Homo sapiens, HCT-116; Table 2, HCT116 cells, 24 hours
Procedure: • 1. HCT116 cell plating
Digesting, counting, and plating the cells in 96-well plates (flat bottom, transparent) with 10,000 cells/100 ul DMEM (10% FBS) per well; • 2. Observing the state of cells on the next day, and start dosing after cell attachment is intact; • 3. diluting 514 with DMEM (2% FBS) by gradient dilution with concentrations of 20 μM, 10 μM, 5 μM, 2.5 μM, 1.25 μM, 0.625 μM, 0.3125 μM, 0.15625 μM, 0 μM (equal volume of DMSO); • 4. Adding 100 μl of the above different concentrations of 514 to each well, and making two repeat wells for each concentration gradient; leaving three blank wells (only adding DMEM 2% FBS culture medium without cells). • 5. Culturing at 37° C. for 24 hours; • 6. Adding 10 μl CCK-8 enhanced solution to each well: due to the small amount added of CCK-8 in each well, it may cause errors resulting from the reagent staining on the wall of the well. It is recommended to gently tap the culture plate after adding the reagent to help mixing; • 7. Incubating in the incubator for 0.5-4 hours: the amount of Formazan formed is not the same for different cell types, in most cases, incubation for 1 hour is enough. If the color development is not enough, incubation can be continued to determine optimal conditions. • 8. Measuring the absorbance at 450 nm and 600 nm (excluding the interference of the background color of the reagent and the absorbance value of the well plate itself); • 9. Using OD450 nm-OD600 nm for the final absorbance, and calculating the inhibition rate:
[formula] • As: absorbance of experimental wells (medium containing cells, CCK-8, drug to be tested); • Ac: absorbance of control wells (medium containing cells, CCK-8, and no drug to be tested); • Ab: absorbance of blank wells (medium without cells and drug to be tested, CCK-8). (3) qPCR • 1. HCT116 cell plating

[1] = Table 1.3, compounds 15-20, read-out: BCL-9 avidity FP IC50
[2] = Table 2, FP (BCL-9 affinity), read-out: FP
[3] = Table 1.1, compounds 1-6, read-out: BCL-9 avidity FP IC50
[4] = Table 1.2, compounds 7-16, read-out: BCL-9 avidity FP IC50

CC(C)(Oc1cccc(N2CCC[C@@H](NC(=O)N(Cc3ccc(-c4cn[nH]c4)cc3)C3CC3)C2)c1)C(=O)NCCN [Compound 18, N-(2-aminoethyl)-2-{3-[(3R)-3-{[cyclopropyl({[4-(1H-pyrazol-4-yl)phenyl]methyl})carbamoyl]amino}piperidin-1-yl]phenoxy}-2-methylpropanamide]
IC50 (BCL9/β-catenin; [1]): 10 to 20 µM
IC50 (BCL9/β-catenin; [2]): 10 to 20 µM
IC50 (Human AXIN2): 2.54 µM
IC50 (HCT116 cells): 3.46 µM

CC(C)(Oc1cccc(N2CC(C(=O)N(Cc3ccc(-c4ccccc4)cc3)C3CC3)CC(c3ccccc3)C2)c1)C(=O)N1CCNCC1 (racemic) [Compound 5, N-cyclopropyl-1-(3-{[2-methyl-1-oxo-1-(piperazin-1-yl)propan-2-yl]oxy}phenyl)-5-phenyl-N-[(4-phenylphenyl)methyl]piperidine-3-carboxamide]
IC50 (BCL9/β-catenin; [3]): 2.25 µM
IC50 (BCL9/β-catenin; [2]): 6.2 µM
IC50 (Human AXIN2): 10 to 20 µM
IC50 (HCT116 cells): 10 to 20 µM

CC(C)C1CC=C(c2ccc(CN(C(=O)C3CC(c4ccccc4)CN(c4cccc(OC(C)(C)C(=O)N5CCNCC5)c4)C3)C3CC3)cc2)CC1 (racemic) [Compound 4, N-cyclopropyl-1-(3-{[2-methyl-1-oxo-1-(piperazin-1-yl)propan-2-yl]oxy}phenyl)-5-phenyl-N-({4-[4-(propan-2-yl)cyclohex-1-en-1-yl]phenyl}methyl)piperidine-3-carboxamide]
IC50 (BCL9/β-catenin; [2]): 10 to 50 µM
IC50 (Human AXIN2): 10 to 50 µM
IC50 (HCT116 cells): 10 to 50 µM

CC(C)(Oc1cccc(N2CCC[C@@H](C(=O)N(Cc3ccc(C4=CCCCC4)c(Cl)c3)C3CC3)C2)c1)C(=O)N1CCNCC1 [Compound 13, (3R)-N-{[3-chloro-4-(cyclohex-1-en-1-yl)phenyl]methyl}-N-cyclopropyl-1-(3-{[2-methyl-1-oxo-1-(piperazin-1-yl)propan-2-yl]oxy}phenyl)piperidine-3-carboxamide]
IC50 (BCL9/β-catenin; [2]): 10 to 50 µM
IC50 (Human AXIN2): 10 to 50 µM
IC50 (HCT116 cells): 10 to 50 µM

CC(C)(Oc1cccc(N2CCC[C@@H](C(=O)N(Cc3ccc(-c4ccccc4)c(Cl)c3)C3CC3)C2)c1)C(=O)N1CCNCC1 [Compound 14, (3R)-N-[(3-chloro-4-phenylphenyl)methyl]-N-cyclopropyl-1-(3-{[2-methyl-1-oxo-1-(piperazin-1-yl)propan-2-yl]oxy}phenyl)piperidine-3-carboxamide]
IC50 (BCL9/β-catenin; [2]): 10 to 50 µM
IC50 (Human AXIN2): 10 to 50 µM
IC50 (HCT116 cells): 10 to 50 µM

CC(C)(Oc1ccc(Cl)c(N2CCC[C@@H](C(=O)N(Cc3ccc(-c4c[nH]c5ncccc45)cc3)C3CC3)C2)c1)C(=O)N1CCNCC1 [Compound 11, (3R)-1-(2-chloro-5-{[2-methyl-1-oxo-1-(piperazin-1-yl)propan-2-yl]oxy}phenyl)-N-cyclopropyl-N-[(4-{1H-pyrrolo[2,3-b]pyridin-3-yl}phenyl)methyl]piperidine-3-carboxamide]
IC50 (BCL9/β-catenin; [4]): 2.44 µM
IC50 (BCL9/β-catenin; [2]): 2.44 µM
IC50 (Human AXIN2): 10 to 20 µM
IC50 (HCT116 cells): 10 to 20 µM

CN(c1cccc(N2CCC[C@@H](C(=O)N(Cc3ccc(-c4cn[nH]c4)cc3)C3CC3)C2)c1)C(C)(C)C(=O)N1CCNCC1 [Compound 16, (3R)-N-cyclopropyl-1-(3-{methyl[2-methyl-1-oxo-1-(piperazin-1-yl)propan-2-yl]amino}phenyl)-N-{[4-(1H-pyrazol-4-yl)phenyl]methyl}piperidine-3-carboxamid]
IC50 (BCL9/β-catenin; [1]): 10 to 20 µM
IC50 (BCL9/β-catenin; [2]): 10 to 20 µM
IC50 (Human AXIN2): 10 to 20 µM
IC50 (HCT116 cells): 2.79 µM

CC(C)(Oc1ccc(Cl)c(N2CCC[C@@H](C(=O)N(Cc3ccc(-c4cn[nH]c4)cc3)C3CC3)C2)c1)C(=O)N1CCNCC1 [Compound 9]
IC50 (BCL9/β-catenin; [4]): > 10 µM
IC50 (BCL9/β-catenin; [2]): 10 to 20 µM
IC50 (Human AXIN2): 10 to 50 µM
IC50 (HCT116 cells): 10 to 50 µM

CC(C)(Nc1cccc(N2CCC[C@@H](C(=O)N(Cc3ccc(-c4cn[nH]c4)cc3)C3CC3)C2)c1)C(=O)N1CCNCC1 [Compound 15, (3R)-N-cyclopropyl-1-(3-{[2-methyl-1-oxo-1-(piperazin-1-yl)propan-2-yl]amino}phenyl)-N-{[4-(1H-pyrazol-4-yl)phenyl]methyl}piperidine-3-carboxamide]
IC50 (BCL9/β-catenin; [1]): 10 to 20 µM
IC50 (BCL9/β-catenin; [2]): 10 to 20 µM
IC50 (Human AXIN2): 10 to 20 µM
IC50 (HCT116 cells): 2.42 µM

CC(C)(Oc1cccc(N2CC(C(=O)N(Cc3ccc(C4=CCCCC4)cc3)C3CC3)CC(c3ccccc3)C2)c1)C(=O)N1CCNCC1 (racemic) [Compound 6, N-{[4-(cyclohex-1-en-1-yl)phenyl]methyl}-N-cyclopropyl-1-(3-{[2-methyl-1-oxo-1-(piperazin-1-yl)propan-2-yl]oxy}phenyl)-5-phenylpiperidine-3-carboxamide]
IC50 (BCL9/β-catenin; [3]): 7.75 µM
IC50 (BCL9/β-catenin; [2]): 7.75 µM
IC50 (Human AXIN2): 10 to 20 µM
IC50 (HCT116 cells): 10 to 20 µM

CC(C)(Oc1cccc(N2CC(C(=O)N(Cc3ccc(-c4cn[nH]c4)cc3)C3CC3)CC(c3ccccc3)C2)c1)C(=O)N1CCNCC1 (centres unmarked) [Compound 2, N-cyclopropyl-1-(3-{[2-methyl-1-oxo-1-(piperazin-1-yl)propan-2-yl]oxy}phenyl)-5-phenyl-N-{[4-(1H-pyrazol-4-yl)phenyl]methyl}piperidine-3-carboxamide]
IC50 (BCL9/β-catenin; [3]): > 10 µM
IC50 (BCL9/β-catenin; [2]): 10 to 50 µM
IC50 (Human AXIN2): 10 to 20 µM
IC50 (HCT116 cells): 10 to 50 µM

CC(C)(Oc1cccc(N2CC(C(=O)N(Cc3ccc(-c4cn[nH]c4)cc3)C3CC3)CC(C3CCCCC3)C2)c1)C(=O)N1CCNCC1 (centres unmarked) [Compound 1, 5-cyclohexyl-N-cyclopropyl-1-(3-{[2-methyl-1-oxo-1-(piperazin-1-yl)propan-2-yl]oxy}phenyl)-N-{[4-(1H-pyrazol-4-yl)phenyl]methyl}piperidine-3-carboxamide]
IC50 (BCL9/β-catenin; [3]): > 10 µM
IC50 (BCL9/β-catenin; [2]): 10 to 50 µM
IC50 (Human AXIN2): 10 to 50 µM
IC50 (HCT116 cells): 10 to 50 µM

CC(C)(Oc1cccc(N2CC(C(=O)N(Cc3ccc(-c4c[nH]c5ncccc45)cc3)C3CC3)CC(c3ccccc3)C2)c1)C(=O)N1CCNCC1 (racemic) [Compound 3, N-cyclopropyl-1-(3-{[2-methyl-1-oxo-1-(piperazin-1-yl)propan-2-yl]oxy}phenyl)-5-phenyl-N-[(4-{1H-pyrrolo[2,3-b]pyridin-3-yl}phenyl)methyl]piperidine-3-carboxamide]
IC50 (BCL9/β-catenin; [3]): 2.76 µM
IC50 (BCL9/β-catenin; [2]): 2.76 µM
IC50 (Human AXIN2): 10 to 20 µM
IC50 (HCT116 cells): 10 to 20 µM

CC(C)(Oc1cccc(N2CCC[C@@H](C(=O)N(Cc3ccc(-c4c[nH]c5ncccc45)cc3)C3CC3)C2)c1Cl)C(=O)N1CCNCC1 [Compound 8, (3R)-1-(2-chloro-3-{[2-methyl-1-oxo-1-(piperazin-1-yl)propan-2-yl]oxy}phenyl)-N-cyclopropyl-N-[(4-{1H-pyrrolo[2,3-b]pyridin-3-yl}phenyl)methyl]piperidine-3-carboxamide]
IC50 (BCL9/β-catenin; [4]): > 10 µM
IC50 (BCL9/β-catenin; [2]): 10 to 50 µM
IC50 (Human AXIN2): 10 to 50 µM
IC50 (HCT116 cells): 10 to 20 µM
